As usually defined, the Papp A→B is how fast a substance crosses the layer from the apical side.

The values that follow come from PMC9857510, “Identification of Immune-Active Peptides in Casein Hydrolysates and Its Transport Mechanism on a Caco-2 Monolayer” (Foods, 2023).

Read-outs that look alike come from different tables or passages of the source. Residues, ends and D or L forms follow the SMILES beside them. No end group written: not given here.

In data set [1] the test system is Caco-2 cell monolayer. Briefly: Peptide efflux: sodium azide pre-incubation (ATP production). The data set is classed as in vitro ADME, human. The following applies: 10 mM sodium azide, AP-BL, 2 h, vs blank. On the procedure:
(§1) In total, 0.5 mL of 0.05 mM MK-571 sodium salt, 0.1 mM verapamil, and 10 mM sodium azide were added to the AP side hole of the Transwell plate and incubated in a CO2 incubator for 30 min. After this incubation, the compounds were removed, the peptide was added to the AP side, and HBSS buffer was added to the BL side for 2 h.

Another data set addresses T1, MRP2 (Homo sapiens, UniProt Q92887).
T1 construct: Multidrug resistance protein (MRP) and P-glycoprotein in Caco-2 cells are energy-dependent efflux transporters; endogenous in cells; host or cells: Caco-2
The data set can be described thus: Peptide efflux: MK-571 sodium salt pre-incubation. In kind it is in vitro ADME. The following applies: 0.05 mM MK-571 sodium salt, AP-BL, 2 h, vs blank. On the procedure:
as §1

The test system of data set [2] is Caco-2 cell monolayer. Briefly: Absorption mechanism: phenylarsine oxide (endocytosis) and sodium deoxycholate (bypass transport) pre-incubation. The data set is classed as in vitro ADME, human. As for the experimental part: (§2) After 0.5 mL of 10 mM Gly-Pro, 0.1 mM sodium deoxycholate and 0.025 mM phenylarsine oxide were added to different wells on the AP side, and the Transwell plates were incubated in a CO2 incubator for 30 min and followed by the removal of these compounds. The peptides were then added to the AP side, and Hank’s Balanced Salt Solution (HBSS) buffer was added to the BL side, and samples were collected after 2 h.

Another data set has as its target T2, P-glycoprotein (Homo sapiens, UniProt P08183).
T2 construct: Multidrug resistance protein (MRP) and P-glycoprotein in Caco-2 cells are energy-dependent efflux transporters; endogenous in cells; host or cells: Caco-2
The data set can be described thus: Peptide efflux: verapamil pre-incubation. The data set is classed as in vitro ADME. Particulars: 0.1 mM verapamil, AP-BL, 2 h, vs blank. On the procedure: as §1

The target of data set [3] is T3, Peptide transporter 1 (Pep T1) (Homo sapiens, UniProt P46059).
T3 construct: endogenous in cells; host or cells: Caco-2
T3 sequence (P46059 1-708): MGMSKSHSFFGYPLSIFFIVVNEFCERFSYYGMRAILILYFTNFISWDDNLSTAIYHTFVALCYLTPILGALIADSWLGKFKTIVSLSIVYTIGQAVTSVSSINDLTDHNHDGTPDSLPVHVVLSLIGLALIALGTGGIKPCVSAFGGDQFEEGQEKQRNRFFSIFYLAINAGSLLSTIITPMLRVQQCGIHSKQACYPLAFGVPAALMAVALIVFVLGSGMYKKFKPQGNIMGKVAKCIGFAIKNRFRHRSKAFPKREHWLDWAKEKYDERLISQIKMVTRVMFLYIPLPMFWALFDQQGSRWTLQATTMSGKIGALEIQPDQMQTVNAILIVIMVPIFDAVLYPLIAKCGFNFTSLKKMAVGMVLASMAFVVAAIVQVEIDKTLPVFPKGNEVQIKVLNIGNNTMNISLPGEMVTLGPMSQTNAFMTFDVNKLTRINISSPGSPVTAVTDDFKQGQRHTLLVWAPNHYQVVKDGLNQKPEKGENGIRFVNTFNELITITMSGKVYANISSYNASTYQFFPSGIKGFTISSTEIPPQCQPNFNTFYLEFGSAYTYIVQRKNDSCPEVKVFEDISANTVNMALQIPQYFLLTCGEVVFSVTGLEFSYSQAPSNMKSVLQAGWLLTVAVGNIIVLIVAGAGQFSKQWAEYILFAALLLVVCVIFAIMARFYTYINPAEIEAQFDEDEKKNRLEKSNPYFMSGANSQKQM
The data set can be described thus: Absorption mechanism: Gly-Pro pre-incubation (carrier transport). The data set is classed as in vitro ADME. The following applies: 10 mM Gly-Pro, 30 min pre-incubation, 2 h transport, vs blank. As for the experimental part:
as §2

Data set [4] concerns Caco-2 cell monolayer. The data set can be described thus: Integrity of peptides after passing the Caco-2 monolayer (RP-HPLC, LC-MS/MS). In kind it is in vitro ADME, human. Particulars: for integrity of the peptide after passing through the Caco-2 cell membrane: RP-HPLC and LC/MS of BL-side liquid; for Concentration (ppm): peptide and fragments found by LC-MS in the liquid that passed the membrane, parents RYPLGYL, KHPIK, FFSDK.

Another data set can be described thus: in vitro. The following applies: human, Caco-2, pH 7.4.
The subject of data set [5] is Caco-2 cell monolayer. The data set can be described thus: Transport assay on Caco-2 cell monolayer (Transwell, RP-HPLC quantification). (In general: Caco-2 cells form a polarised layer with tight junctions and transporters.)
Procedure: (§3) Reverse phase high-performance liquid chromatography (RP-HPLC) was used to analyze the composition of peptides passed through the Caco-2 cell membrane. The elution parameters were as follows: the mobile phase B was ultra-pure water containing 0.1% Trifluoroacetic acid (TFA), and mobile phase A contained acetonitrile supplemented with 0.1% TFA. Adopting a gradient elution method, in detail, at 0.01 min, mobile phase A was 5%; at 25 min, mobile phase A was 70%. The absorbance of RP-HPLC was detected at 220 nm. The peak yields of the five electroactive peptides at the concentrations of 0.5 mM, 0.2 mM, 0.1 mM, 0.05 mM, and 0.025 mM were detected. The concentration was set as the abscissa and the peak area was set as the ordinate to draw the standard curves of the different peptide segments.
(§4) Caco-2 cells were maintained in an incubator at 37 °C, with 5% CO2 and relative humidity of 90% until the number of cells accounted for 80–90% of confluency [19]. After that, the medium was added to obtain a cellular suspension with 4 × 10^5 cells/mL, which was seeded on a 12-well Transwell plate added to the AP side of the 0.5 mL cell suspension, and the Basal lateral (BL) side by adding 1.5 mL of cell culture medium after one day after the exchange, Then, the fluid was changed every other day for 6 days, and the fluid was changed every day until the culture was completed. […] The main detection indicators were: (1) cell morphology observation; (2) the cell membrane compactness using fluorescent yellow test; (3) the detection of single-cell membrane resistance [20]; (4) alkaline phosphatase activities at the top and the basal side of the cell membrane were detected respectively to preliminarily determine the polarity of it.
(§5) The Papp formula of fluorescence is as follows:(2) Papp=dQ/dt/A×C0 where: C0—Initial concentration of fluorescent yellow (mg/mL); A—Membrane surface area (cm^2); dQ/dt—Transport of fluorescent yellow per unit time; Papp—Apparent permeability coefficient.
Data set [6] has as its system Caco-2 cell monolayer.
Procedure: as §3, §4, §5

T2 sequence (P08183 whole entry): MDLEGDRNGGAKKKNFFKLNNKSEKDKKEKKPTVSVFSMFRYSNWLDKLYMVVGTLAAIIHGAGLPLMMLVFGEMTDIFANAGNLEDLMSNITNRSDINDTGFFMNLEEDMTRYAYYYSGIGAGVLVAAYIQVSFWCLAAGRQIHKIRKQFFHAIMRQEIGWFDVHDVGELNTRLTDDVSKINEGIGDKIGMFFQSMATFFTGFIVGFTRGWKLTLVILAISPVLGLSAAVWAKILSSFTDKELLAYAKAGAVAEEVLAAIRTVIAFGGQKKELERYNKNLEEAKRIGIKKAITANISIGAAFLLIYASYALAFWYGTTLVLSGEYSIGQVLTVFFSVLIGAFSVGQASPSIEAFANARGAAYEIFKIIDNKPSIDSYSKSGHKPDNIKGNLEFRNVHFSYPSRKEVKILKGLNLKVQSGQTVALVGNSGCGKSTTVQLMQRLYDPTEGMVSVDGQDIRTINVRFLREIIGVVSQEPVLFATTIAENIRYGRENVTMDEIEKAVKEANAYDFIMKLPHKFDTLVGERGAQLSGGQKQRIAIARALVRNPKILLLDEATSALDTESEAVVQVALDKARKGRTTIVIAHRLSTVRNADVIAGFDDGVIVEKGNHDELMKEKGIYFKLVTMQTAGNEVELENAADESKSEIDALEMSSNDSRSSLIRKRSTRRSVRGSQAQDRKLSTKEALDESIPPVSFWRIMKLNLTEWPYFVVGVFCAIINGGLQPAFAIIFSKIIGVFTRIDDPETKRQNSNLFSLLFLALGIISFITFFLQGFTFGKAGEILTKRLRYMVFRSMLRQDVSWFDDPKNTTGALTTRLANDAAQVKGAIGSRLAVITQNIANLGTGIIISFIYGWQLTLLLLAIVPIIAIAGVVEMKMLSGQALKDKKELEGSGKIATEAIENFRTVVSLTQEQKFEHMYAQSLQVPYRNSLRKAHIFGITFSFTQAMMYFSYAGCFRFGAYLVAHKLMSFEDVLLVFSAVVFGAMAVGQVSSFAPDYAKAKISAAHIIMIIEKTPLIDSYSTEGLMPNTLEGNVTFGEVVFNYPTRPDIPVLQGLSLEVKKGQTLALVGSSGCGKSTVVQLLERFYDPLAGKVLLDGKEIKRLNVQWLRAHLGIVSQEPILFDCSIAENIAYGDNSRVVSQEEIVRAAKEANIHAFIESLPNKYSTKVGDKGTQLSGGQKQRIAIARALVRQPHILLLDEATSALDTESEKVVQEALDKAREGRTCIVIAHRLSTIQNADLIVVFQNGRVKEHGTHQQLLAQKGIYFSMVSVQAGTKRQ
T1 sequence (Q92887 whole entry): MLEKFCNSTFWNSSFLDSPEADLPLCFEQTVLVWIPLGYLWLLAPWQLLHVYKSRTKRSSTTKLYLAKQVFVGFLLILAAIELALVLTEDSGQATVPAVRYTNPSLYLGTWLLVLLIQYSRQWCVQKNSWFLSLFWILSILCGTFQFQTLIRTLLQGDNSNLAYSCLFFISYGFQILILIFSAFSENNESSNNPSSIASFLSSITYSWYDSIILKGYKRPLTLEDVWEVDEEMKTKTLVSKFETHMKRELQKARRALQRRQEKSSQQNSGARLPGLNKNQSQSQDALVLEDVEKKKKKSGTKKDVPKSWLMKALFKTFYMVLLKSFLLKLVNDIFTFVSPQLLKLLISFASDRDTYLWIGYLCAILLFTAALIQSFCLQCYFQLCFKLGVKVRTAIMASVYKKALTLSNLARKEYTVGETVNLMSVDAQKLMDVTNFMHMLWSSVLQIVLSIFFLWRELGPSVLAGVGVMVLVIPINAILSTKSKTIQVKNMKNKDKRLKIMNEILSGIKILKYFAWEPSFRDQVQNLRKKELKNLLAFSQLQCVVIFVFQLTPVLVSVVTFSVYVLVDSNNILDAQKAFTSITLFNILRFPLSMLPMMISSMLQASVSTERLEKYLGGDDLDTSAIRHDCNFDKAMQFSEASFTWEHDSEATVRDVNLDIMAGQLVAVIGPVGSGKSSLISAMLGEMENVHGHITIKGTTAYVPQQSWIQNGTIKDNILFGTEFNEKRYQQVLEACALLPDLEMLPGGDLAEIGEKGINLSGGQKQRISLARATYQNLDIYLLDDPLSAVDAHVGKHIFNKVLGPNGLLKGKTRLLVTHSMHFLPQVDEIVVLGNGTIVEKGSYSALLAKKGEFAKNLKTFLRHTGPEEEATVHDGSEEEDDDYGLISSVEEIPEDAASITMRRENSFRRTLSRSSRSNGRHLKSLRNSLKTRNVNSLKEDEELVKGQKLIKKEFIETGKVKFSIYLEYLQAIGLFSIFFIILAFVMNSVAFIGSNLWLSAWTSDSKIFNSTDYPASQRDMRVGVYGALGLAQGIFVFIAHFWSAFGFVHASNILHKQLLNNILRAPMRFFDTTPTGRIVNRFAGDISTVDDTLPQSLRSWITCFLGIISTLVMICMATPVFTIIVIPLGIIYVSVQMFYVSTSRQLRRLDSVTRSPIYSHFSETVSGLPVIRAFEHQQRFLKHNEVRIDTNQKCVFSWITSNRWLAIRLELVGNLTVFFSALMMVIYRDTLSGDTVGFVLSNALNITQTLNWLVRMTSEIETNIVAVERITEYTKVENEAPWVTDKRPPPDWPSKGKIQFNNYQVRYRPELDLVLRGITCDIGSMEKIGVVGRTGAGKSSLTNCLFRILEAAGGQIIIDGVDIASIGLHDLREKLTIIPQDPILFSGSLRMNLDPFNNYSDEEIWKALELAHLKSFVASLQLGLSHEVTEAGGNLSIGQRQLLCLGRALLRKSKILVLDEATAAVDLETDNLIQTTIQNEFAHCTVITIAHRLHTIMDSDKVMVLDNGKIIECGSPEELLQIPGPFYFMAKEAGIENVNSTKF
Procedure for in vitro: as §3, §4, §5

`N[C@@H](Cc1ccc(O)cc1)C(=O)NCC(=O)NCC(=O)O` [YGG, Tyr-Gly-Gly] (H-Tyr-Gly-Gly-OH; N-terminus and C-terminus assumed): in the data set on Caco-2 cell monolayer [1], the “effect of sodium azide on concentration on the BL side” value is “slightly higher”. For the same compound, the “effect of MK-571 sodium salt on transmembrane transport” value at MRP2 is reported as “no significant differences”. Also, the “main transport mechanism in intestinal epithelial cells” value (from here on “main transport mechanism”) with Caco-2 cell monolayer [2] (Caco-2 monolayer) was “bypass diffusion”. In addition, the “effect of verapamil on transmembrane transport” value on P-glycoprotein was “significantly promote”. Moreover, the “effect of Gly-Pro on transport to the BL side” value in data set [3] is given as “no significant differences”.

Regarding “RYPLGYL [RYPLGYL, Arg-Tyr-Pro-Leu-Gly-Tyr-Leu]”, in the data set on Caco-2 cell monolayer [4], the “integrity of the peptide after passing through the Caco-2 cell membrane” value (shortened to “integrity of the peptide”) was “resistant to the enzymatic hydrolysis of intestinal epithelial cells” and the “Concentration (ppm)” value is 10.74 ppm. Further, the apparent permeability from apical to basolateral (Papp A→B) at 2 h, 5 mM in “in vitro” turned out to be 0.161 ×10⁻⁶ cm/s. For the same compound, the “main transport mechanism” value with Caco-2 cell monolayer [2] is listed as “bypass diffusion”.

Regarding FFSDK [FFSDK, Phe-Phe-Ser-Asp-Lys], in the data set on Caco-2 cell monolayer [4], the “integrity of the peptide” value is “Most of the KHPIK and FFSDK were hydrolyzed into KHP and FFS”; the “Concentration (ppm)” value was determined as 2.59 ppm. Besides, the Papp A→B at 2 h, 5 mM in the data set “in vitro” was 0.491 ×10⁻⁶ cm/s. In addition, the “main transport mechanism” value with Caco-2 cell monolayer [2] is “bypass diffusion”.

For `NNC(=O)NN1C(=O)c2cc(S(=O)(=O)[O-])cc3c(N)c(S(=O)(=O)[O-])cc(c23)C1=O.[Li+].[Li+]` [fluorescence yellow], in the data set on Caco-2 cell monolayer [5] (Caco-2 monolayer density check), the “Papp of fluorescence yellow” value turned out to be 0.607 ×10⁻⁶ cm/s. In the data set on Caco-2 cell monolayer [5] (experimental group (Caco-2 monolayer), from 0.5 h to 2.5 h), the increase of transmittance amounted to 1.6%.

“KHPIKH [KHPIKH, Lys-His-Pro-Ile-Lys-His]”: the Papp A→B at 2 h, 5 mM in “in vitro” worked out at 0.26 ×10⁻⁶ cm/s. Further, in the data set on Caco-2 cell monolayer [2], the “main transport mechanism” value is listed as “bypass diffusion”.

Turning to KHPIK [KHPIK, Lys-His-Pro-Ile- Lys], in the data set on Caco-2 cell monolayer [6] (Caco-2), the “amount across the membrane versus time” value was “increased slowly”, the “amount transported versus time” value is recorded as “increased rapidly” and the “transport quantity BL-AP side compared with AP-BL side” value was “significantly lower”. For the same compound, the “transmembrane transport capacity on the BL side” value (“transmembrane transport capacity” below) with Caco-2 cell monolayer [6] (Caco-2, pH 6) was determined as 23.14 µM. Further, the “transmembrane transport capacity” value in the data set with Caco-2 cell monolayer [6] (Caco-2, pH 7) is “greater than 30.01 μM”. The “transmembrane transport capacity” value in the data set on Caco-2 cell monolayer [6] (Caco-2, pH 7.4) amounted to 44.35 µM. Further, in the data set on Caco-2 cell monolayer [4], the “integrity of the peptide” value is “Most of the KHPIK and FFSDK were hydrolyzed into KHP and FFS”; the “Concentration (ppm)” value is 2.59 ppm. The same compound showed a Papp A→B at 2 h, 5 mM in “in vitro” of 0.322 ×10⁻⁶ cm/s. Also, in the data set on Caco-2 cell monolayer [2], the “main transport mechanism” value was “bypass diffusion”.
